Laboratory results published in the NIST ThermoML archive (doi:10.1021/je100594u).
Several values for one entry are separate records, joined by “and”; a condition that tells them apart may be missing. Identical values can stand only once. Numbers after ± are expanded uncertainties.

Key:
[1] = refractive index (Na D-line) (dimensionless); conditions: 298.15 K; 101.33 kPa; Liquid
[2] = 298.15 K, 101.3 kPa, Liquid; for viscosity: Capillary tube (Ostwald / Ubbelohde) method; for speed of sound: Linear variable-path acoustic interferometer; for mass density: Pycnometric method
[3] = xn = mol fraction of the nth substance listed; conditions: 298.15 K, 101.3 kPa, Liquid; for viscosity: Capillary tube (Ostwald / Ubbelohde) method; for speed of sound: Linear variable-path acoustic interferometer; for mass density: Pycnometric method
[4] = refractive index (Na D-line) (dimensionless); xn = mol fraction of the nth substance listed; conditions: 298.15 K, 101.3 kPa, Liquid

In the case of `C1COCO1` [1,3-dioxolane], the refractive index [1] is reported as 1.3985 ± 0.0013, the viscosity [2] is reported as 0.5894 ± 0.0049 mPa·s and the speed of sound [2] is reported as 1339.4 ± 1.7 m/s and 1339.5 ± 1.7 m/s. For the same compound, the mass density [2] was 1058.7 ± 0.7 kg/m3.
Work on `CCOCC` [diethyl ether] + C1COCO1 yielded a viscosity ([3]; x2 = 0) of 0.2469 ± 0.0024 mPa·s, a viscosity ([3]; x2 = 0.1) of 0.2656 ± 0.0026 mPa·s and a viscosity ([3]; x2 = 0.2) of 0.2844 ± 0.0027 mPa·s. It also gave a viscosity ([3]; x2 = 0.3001) of 0.3055 ± 0.0029 mPa·s, a viscosity ([3]; x2 = 0.4001) of 0.331 ± 0.0031 mPa·s and a viscosity ([3]; x2 = 0.5001) of 0.3604 ± 0.0033 mPa·s. It also gave a viscosity ([3]; x2 = 0.6001) of 0.3944 ± 0.0035 mPa·s, a viscosity ([3]; x2 = 0.7001) of 0.4345 ± 0.0038 mPa·s and a viscosity ([3]; x2 = 0.8) of 0.4784 ± 0.0041 mPa·s. For the same compound, the viscosity ([3]; x2 = 0.9) was 0.5305 ± 0.0045 mPa·s, the speed of sound ([3]; x2 = 0) was 982.3 ± 1.5 m/s and the speed of sound ([3]; x2 = 0.1) was 1003.9 ± 1.5 m/s. The speed of sound ([3]; x2 = 0.2) was 1033.4 ± 1.6 m/s, the speed of sound ([3]; x2 = 0.3001) was 1067.4 ± 1.6 m/s and the speed of sound ([3]; x2 = 0.4001) was 1108.5 ± 1.6 m/s. For the same compound, the speed of sound ([3]; x2 = 0.5001) was 1152.8 ± 1.6 m/s and 1149.2 ± 1.6 m/s, the speed of sound ([3]; x2 = 0.6001) was 1191.4 ± 1.7 m/s and the speed of sound ([3]; x2 = 0.7001) was 1230.9 ± 1.7 m/s. The speed of sound ([3]; x2 = 0.8) was 1265.3 ± 1.7 m/s, the speed of sound ([3]; x2 = 0.9) was 1302.4 ± 1.7 m/s and the mass density ([3]; x2 = 0) was 708.3 ± 0.6 kg/m3. For the same compound, the mass density ([3]; x2 = 0.1) was 736.4 ± 0.7 kg/m3, the mass density ([3]; x2 = 0.2) was 765.6 ± 0.7 kg/m3 and the mass density ([3]; x2 = 0.3001) was 796.3 ± 0.7 kg/m3. For the same compound, the mass density ([3]; x2 = 0.4001) was 829 ± 0.7 kg/m3, the mass density ([3]; x2 = 0.5001) was 863.4 ± 0.7 kg/m3 and the mass density ([3]; x2 = 0.6001) was 899.7 ± 0.7 kg/m3. It also gave a mass density ([3]; x2 = 0.7001) of 938.2 ± 0.7 kg/m3, a mass density ([3]; x2 = 0.8) of 977 ± 0.7 kg/m3 and a mass density ([3]; x2 = 0.9) of 1018.4 ± 0.8 kg/m3. It also gave a refractive index ([4]; x2 = 0) of 1.3515 ± 0.0013, a refractive index ([4]; x2 = 0.1) of 1.3568 ± 0.0013 and a refractive index ([4]; x2 = 0.2) of 1.3604 ± 0.0013. The refractive index ([4]; x2 = 0.3001) was 1.3649 ± 0.0013, the refractive index ([4]; x2 = 0.4001) was 1.3696 ± 0.0013 and the refractive index ([4]; x2 = 0.5001) was 1.3743 ± 0.0013 and 1.375 ± 0.0013. The refractive index ([4]; x2 = 0.6001) was 1.3791 ± 0.0013, the refractive index ([4]; x2 = 0.7001) was 1.3842 ± 0.0013 and the refractive index ([4]; x2 = 0.8) was 1.3893 ± 0.0013. For the same compound, the refractive index ([4]; x2 = 0.9) was 1.3956 ± 0.0013.
With `CCOCC` [diethyl ether] the refractive index [1] was 1.3515 ± 0.0013, the viscosity [2] was 0.2469 ± 0.0024 mPa·s and the speed of sound [2] was 982.3 ± 1.5 m/s. For the same compound, the mass density [2] was 708.3 ± 0.6 kg/m3.
For `C1COCO1` [1,3-dioxolane] + CCCCCO, the viscosity ([3]; x1 = 0.1168) was 2.505 ± 0.019 mPa·s, the viscosity ([3]; x1 = 0.2293) was 1.885 ± 0.015 mPa·s and the viscosity ([3]; x1 = 0.3377) was 1.44 ± 0.011 mPa·s. The viscosity ([3]; x1 = 0.4424) was 1.063 ± 0.0085 mPa·s, the viscosity ([3]; x1 = 0.5434) was 0.9063 ± 0.0073 mPa·s and the viscosity ([3]; x1 = 0.6409) was 0.756 ± 0.0062 mPa·s. It also gave a viscosity ([3]; x1 = 0.7352) of 0.6472 ± 0.0054 mPa·s, a viscosity ([3]; x1 = 0.8264) of 0.5704 ± 0.0048 mPa·s and a viscosity ([3]; x1 = 0.9146) of 0.5413 ± 0.0046 mPa·s. For the same compound, the viscosity ([3]; x1 = 1) was 0.5894 ± 0.0049 mPa·s, the speed of sound ([3]; x1 = 0.1168) was 1278.8 ± 1.7 m/s and the speed of sound ([3]; x1 = 0.2293) was 1287.5 ± 1.7 m/s. The speed of sound ([3]; x1 = 0.3377) was 1296.8 ± 1.7 m/s, the speed of sound ([3]; x1 = 0.4424) was 1305 ± 1.7 m/s and the speed of sound ([3]; x1 = 0.5434) was 1313.4 ± 1.7 m/s. The speed of sound ([3]; x1 = 0.6409) was 1321.5 ± 1.7 m/s, the speed of sound ([3]; x1 = 0.7352) was 1327.1 ± 1.7 m/s and the speed of sound ([3]; x1 = 0.8264) was 1332.7 ± 1.7 m/s. The speed of sound ([3]; x1 = 0.9146) was 1337 ± 1.7 m/s, the speed of sound ([3]; x1 = 1) was 1339.5 ± 1.7 m/s and the mass density ([3]; x1 = 0.1168) was 832.9 ± 0.7 kg/m3. For the same compound, the mass density ([3]; x1 = 0.2293) was 854.5 ± 0.7 kg/m3, the mass density ([3]; x1 = 0.3377) was 876.6 ± 0.7 kg/m3 and the mass density ([3]; x1 = 0.4424) was 899.2 ± 0.7 kg/m3. The mass density ([3]; x1 = 0.5434) was 922.5 ± 0.7 kg/m3, the mass density ([3]; x1 = 0.6409) was 946.8 ± 0.7 kg/m3 and the mass density ([3]; x1 = 0.7352) was 972.5 ± 0.7 kg/m3. For the same compound, the mass density ([3]; x1 = 0.8264) was 999.3 ± 0.7 kg/m3, the mass density ([3]; x1 = 0.9146) was 1028.2 ± 0.7 kg/m3 and the mass density ([3]; x1 = 1) was 1058.7 ± 0.7 kg/m3. It also gave a refractive index ([4]; x1 = 0.1168) of 1.4085 ± 0.0013, a refractive index ([4]; x1 = 0.2293) of 1.4072 ± 0.0013 and a refractive index ([4]; x1 = 0.3377) of 1.406 ± 0.0013. The refractive index ([4]; x1 = 0.4424) was 1.405 ± 0.0013, the refractive index ([4]; x1 = 0.5434) was 1.404 ± 0.0013 and the refractive index ([4]; x1 = 0.6409) was 1.403 ± 0.0013. For the same compound, the refractive index ([4]; x1 = 0.7352) was 1.4022 ± 0.0013, the refractive index ([4]; x1 = 0.8264) was 1.401 ± 0.0013 and the refractive index ([4]; x1 = 0.9146) was 1.4 ± 0.0013. It also gave a refractive index ([4]; x1 = 1) of 1.3985 ± 0.0013.
For `CCOCC` [diethyl ether] + CCCCCO, the viscosity ([3]; x1 = 0.1167) was 2.651 ± 0.02 mPa·s, the viscosity ([3]; x1 = 0.2292) was 1.966 ± 0.015 mPa·s and the viscosity ([3]; x1 = 0.3377) was 1.491 ± 0.012 mPa·s. For the same compound, the viscosity ([3]; x1 = 0.4423) was 1.123 ± 0.0089 mPa·s, the viscosity ([3]; x1 = 0.5433) was 0.8294 ± 0.0068 mPa·s and the viscosity ([3]; x1 = 0.6409) was 0.6199 ± 0.0052 mPa·s. For the same compound, the viscosity ([3]; x1 = 0.7352) was 0.4811 ± 0.0042 mPa·s, the viscosity ([3]; x1 = 0.8263) was 0.382 ± 0.0034 mPa·s and the viscosity ([3]; x1 = 0.9146) was 0.3141 ± 0.0029 mPa·s. The viscosity ([3]; x1 = 1) was 0.2469 ± 0.0024 mPa·s, the speed of sound ([3]; x1 = 0.1167) was 1241.8 ± 1.7 m/s and the speed of sound ([3]; x1 = 0.2292) was 1216.7 ± 1.7 m/s. It also gave a speed of sound ([3]; x1 = 0.3377) of 1193.9 ± 1.7 m/s, a speed of sound ([3]; x1 = 0.4423) of 1172.2 ± 1.6 m/s and a speed of sound ([3]; x1 = 0.5433) of 1141.6 ± 1.6 m/s. For the same compound, the speed of sound ([3]; x1 = 0.6409) was 1110.7 ± 1.6 m/s, the speed of sound ([3]; x1 = 0.7352) was 1077.3 ± 1.6 m/s and the speed of sound ([3]; x1 = 0.8263) was 1046.3 ± 1.6 m/s. It also gave a speed of sound ([3]; x1 = 0.9146) of 1011.2 ± 1.6 m/s, a speed of sound ([3]; x1 = 1) of 982.3 ± 1.5 m/s and a mass density ([3]; x1 = 0.1167) of 805.2 ± 0.7 kg/m3. For the same compound, the mass density ([3]; x1 = 0.2292) was 797.5 ± 0.7 kg/m3, the mass density ([3]; x1 = 0.3377) was 788.9 ± 0.7 kg/m3 and the mass density ([3]; x1 = 0.4423) was 779.7 ± 0.7 kg/m3. It also gave a mass density ([3]; x1 = 0.5433) of 770.4 ± 0.7 kg/m3, a mass density ([3]; x1 = 0.6409) of 759.5 ± 0.7 kg/m3 and a mass density ([3]; x1 = 0.7352) of 747.9 ± 0.7 kg/m3. The mass density ([3]; x1 = 0.8263) was 736.1 ± 0.7 kg/m3, the mass density ([3]; x1 = 0.9146) was 723 ± 0.7 kg/m3 and the mass density ([3]; x1 = 1) was 708.3 ± 0.6 kg/m3. The refractive index ([4]; x1 = 0.1167) was 1.4043 ± 0.0013, the refractive index ([4]; x1 = 0.2292) was 1.3977 ± 0.0013 and the refractive index ([4]; x1 = 0.3377) was 1.3922 ± 0.0013. For the same compound, the refractive index ([4]; x1 = 0.4423) was 1.3874 ± 0.0013, the refractive index ([4]; x1 = 0.5433) was 1.3825 ± 0.0013 and the refractive index ([4]; x1 = 0.6409) was 1.3774 ± 0.0013. It also gave a refractive index ([4]; x1 = 0.7352) of 1.3724 ± 0.0013, a refractive index ([4]; x1 = 0.8263) of 1.3664 ± 0.0013 and a refractive index ([4]; x1 = 0.9146) of 1.3601 ± 0.0013. For the same compound, the refractive index ([4]; x1 = 1) was 1.3515 ± 0.0013.
In the case of `CCCCCO` [pentan-1-ol], the refractive index [1] is reported as 1.41 ± 0.0013, the viscosity [2] is reported as 3.504 ± 0.026 mPa·s and 3.404 ± 0.025 mPa·s and the speed of sound [2] is reported as 1271.6 ± 1.7 m/s. For the same compound, the mass density [2] was 811.2 ± 0.7 kg/m3.
With `CCCCCO` [pentan-1-ol] + C1COCO1 the viscosity ([3]; x2 = 0) was 3.504 ± 0.026 mPa·s, the speed of sound ([3]; x2 = 0) was 1271.6 ± 1.7 m/s and the mass density ([3]; x2 = 0) was 811.2 ± 0.7 kg/m3. It also gave a refractive index ([4]; x2 = 0) of 1.41 ± 0.0013.
Work on `C1COCO1` [1,3-dioxolane] + CCOCC yielded a viscosity ([3]; x1 = 1) of 0.5894 ± 0.0049 mPa·s, a speed of sound ([3]; x1 = 1) of 1339.4 ± 1.7 m/s and a mass density ([3]; x1 = 1) of 1058.7 ± 0.7 kg/m3. For the same compound, the refractive index ([4]; x1 = 1) was 1.3985 ± 0.0013.
`CCCCCO` [pentan-1-ol] + CCOCC gave a viscosity ([3]; x2 = 0) of 3.504 ± 0.026 mPa·s, a speed of sound ([3]; x2 = 0) of 1271.6 ± 1.7 m/s and a mass density ([3]; x2 = 0) of 811.2 ± 0.7 kg/m3. For the same compound, the refractive index ([4]; x2 = 0) was 1.41 ± 0.0013.
